The values that follow come from patent publication US6166065A, “2,3-dioxabicyclo[3.3.1]nonane derivatives and antimalarial pharmaceutical compositions comprising them” (Yeda Research and Development Co., Ltd., priority 1997, dated 2000).

Where two headings read alike, the source gives them in different places.

For data set [1], the system named is Plasmodium berghei (N strain). As to the kind of experiment: In vivo antimalarial activity against chloroquine-sensitive Plasmodium berghei (N strain), four-day test in mice. As to conditions: sc, P. berghei (N strain), subcutaneous, daily dose, fourday test. The procedure: (§1) Based on the in vitro antimalarial activity of compounds of type A, the in vivo antimalarial activity of two representatives, namely of compounds 23a and 34a, were tested.
(§2) *ED50 and ED90 are given as the daily dose in mg/Kg, repeated
(§3) every 4 days. Substances were administered to mice subcutaneously and
(§4) tested by the fourday test.^14,15

Data set [2] has as its system Plasmodium falciparum (NF54). In words: In vitro antimalarial activity, [3H]hypoxanthine incorporation into chloroquine-sensitive P. falciparum (NF 54). The class given is cell-based. On the procedure: the protozoan Plasmodium falciparum is a causative agent of malaria. The antimalarial activity of 2,3-dioxabicyclo[3.3.1]nonanes of type A was determined by measuring the incorporation of [^3 H]hypoxanthine, by the methods of Desjardins^9 and Milhous,^10 into […] Plasmodium falciparum (NF54)^11 in the presence of varying drug concentrations. Dose-response response curves that were fit to the experimental data by means of the Marquardt algorithm^12 were solved for the drug concentration that kills 50% of parasites (IC50), and were analyzed for accuracy of fit (R^2 value, typically ≥0.99). Provisional IC50 values were obtained in a survey of seven 5-fold dilutions (in triplicate) of stock solutions of chromatographically-purified or recrystalized test compound. Assay were later expanded to include ten concentrations (in quadruplicate) of ~1.8-fold dilutions, which flank the provisional IC50.
Tables 1-3 present tabulations of a number of compounds that have been synthesized along with the IC50 (in nM).

The subject of data set [3] is Plasmodium yoelii (ssp. NS). As to the kind of experiment: In vivo antimalarial activity against chloroquine-resistant Plasmodium yoelii (ssp. NS), four-day test in mice. As to conditions: sc, P. yoelii (ssp. NS), subcutaneous, daily dose, fourday test. On the procedure: as §1, §2, §3, §4
Data set [4] relates to mouse neuroblastoma cells. As to conditions: cited from earlier work.
For data set [5] the following is noted: rats, high doses; cited from earlier work.
Data set [6] relates to Plasmodium yoelii (ssp. NS). Set-up: ED90: unit not given beside the values; ED50: unit not given here. As to conditions: against P. yoelii; cited from earlier work.
For data set [7], the system named is Plasmodium berghei (N strain). Set-up: ED90: unit not given beside the values; ED50: unit not given here. As to conditions: against P. berghei; cited from earlier work.
In data set [8] the test system is Plasmodium falciparum (NF54). As to conditions: recorded under the same conditions; cited from earlier work.
Where [9] appears, read: Plasmodium falciparum, NF54, Expansion data (ten concentrations, quadruplicate, ~1.8-fold dilutions).
[10] abbreviates: Plasmodium falciparum, NF54, Survey data (provisional; seven 5-fold dilutions in triplicate).

In data set [1], `CC(=O)O[C@]1(C)CC[C@@H]2C[C@H]1OO[C@@]2(C)CS(=O)(=O)c1ccccc1` [Compound 23a, (1R,4R,5R,8R)-8-acetoxy-4,8-dimethyl-4-phenylsulfonylmethyl-2,3-dioxabicyclo [3.3.1]nonane] came in with an ED50 of 3.7 mg/kg and an ED90 of 7.3 mg/kg/day. Moreover, in data set [2] (setting [9]), it took 0.017 µM to reach half-maximal inhibition (IC50). In data set [3], this compound showed an ED50 of 12.5 mg/kg and an ED90 of 28 mg/kg/day.
Consider `CC(C)=CCO[C@]1(C)CC[C@@H]2C[C@H]1OO[C@@]2(C)CS(=O)(=O)c1ccccc1` [Compound 35a, (1R,4R,5R,8R)-4,8-dimethyl-8-(γ,γ-dimethylallyloxy)-4-phenylsulfonylmethyl-2,3dioxabicyclo[3.3.1]nonane], for which 0.035 µM corresponded to half-maximal inhibition in data set [2] (setting [9]) (IC50).
For the compound `CCCCS(=O)(=O)C[C@@]1(C)OO[C@H]2C[C@@H]1C[C@H](OC(=O)c1ccccc1)[C@]2(C)O` [Compound 30a, (1S,4S,5S,7S,8S)-7-benzoyloxy-4-n-butylsulfonylmethyl-4,8-dimethyl-2,3-dioxabicyclo[3.3.1]nonan-8-ol], the IC50 (as a rule, the concentration that gives 50% inhibition) in data set [2] (setting [10]) was found to be 0.3 µM.
On to `C[C@]1(CSc2ccccc2)OOC2C[C@@H]1C[C@H](OC(=O)c1ccccc1)[C@]2(C)O` (stereo in doubt) [Compound 4a, (1R,4S,5S,7S,8S)-7-benzoyloxy-4,8-dimethyl-4-phenylthiomethyl-2,3-dioxabicyclo[3.3.1]nonan-8-ol], for which 0.11 µM corresponded to half-maximal inhibition in data set [2] (setting [10]) (IC50).
Turning to `C[C@H]1CC[C@@H]2C[C@H]1OO[C@@]2(C)CS(=O)(=O)c1ccccc1` [Compound 22a, (1R,4R,5R,8S)-4,8-dimethyl-4-phenylsulfonylmethyl-2,3-dioxabicyclo [3.3.1]nonane], the midpoint of inhibition in data set [2] (setting [9]), the IC50, lay at 0.017 µM.
Consider `CC(=O)O[C@]1(C)CC[C@@H]2C[C@H]1OO[C@]2(C)CS(=O)(=O)c1ccccc1` [Compound 23b, (1R,4S,5R,8R)-8-acetoxy-4,8-dimethyl-4-phenylsulfonylmethyl-2,3-dioxabicyclo[3.3.1]nonane], for which the IC50 in data set [2] (setting [9]) worked out at 0.017 µM.
With `C[C@@H]1CC[C@H]2[C@@H](C)C(O)O[C@@H]3O[C@@]4(C)CC[C@@H]1[C@]32OO4` (stereo partly shown) [dihydroarte-mesinin], the neurotoxicity entry in data set [4] is “neurotoxicity has been seen”.
In data set [2] (setting [9]), `CCOC(=O)C(=O)O[C@]1(C)CC[C@@H]2C[C@H]1OO[C@@]2(C)CS(=O)(=O)c1ccccc1` [Compound 25a, (1R,4R,5R,8R)-8-ethoxyoxyalyloxy-4,8-dimethyl-4-phenylsulfonylmethyl-2,3-dioxabicyclo [3.3.1]nonane] came in with an IC50 of 0.17 µM.
The same measure, in the same setting: the same measure for `C[C@]1(CS(=O)(=O)c2ccccc2)OO[C@@H]2C[C@H]1CC[C@@]2(C)O` [Compound 21b, (1R,4S,5R,8R)-4,8-dimethyl-4-phenylsulfonylmethyl-2,3-dioxabicyclo[3.3.1]nonan-8-ol]: 0.089 µM; for `CCOC(=O)C(=O)O[C@]1(C)CC[C@@H]2C[C@H]1OO[C@]2(C)CS(=O)(=O)c1ccccc1` [Compound 25b, (1R,4S,5R,8R)-8-ethoxyoxalyloxy-4,8-dimethyl-4-phenylsulfonylmethyl-2,3-dioxabicyclo [3.3.1]nonane]: 0.14 µM.
Still for that read-out and setting: the same measure for `C[C@]1(CS(=O)(=O)c2ccccc2)OO[C@@H]2C[C@H]1CC[C@@]2(C)OC(=O)Oc1ccccc1` [Compound 27b, (1R,4S, 5R,8R)-4,8-dimethyl-8-phenoxycarbonyloxy-4-phenylsulfonylmethyl-2,3-dioxabicyclo[3.3.1]nonane]: 0.15 µM; for `C[C@@]1(OC(=O)Oc2ccccc2)CC[C@@H]2C[C@H]1OO[C@@]2(C)CS(=O)(=O)c1ccccc1` [Compound 27a, (1R,4R,5R,8R)-4,8-dimethyl-8-phenoxycarbonyloxy-4-phenylsulfonylmethyl-2,3-dioxabicyclo[3.3.1]nonane]: 0.047 µM.
In the case of `CC(=O)O[C@]1(C)CC[C@@H]2C[C@H]1OO[C@@]2(C)C[S+]([O-])c1ccccc1` (stereo partly drawn) [Compound 41a, (1R,4R,5R,8R)-8-acetoxy-4,8-dimethyl-4-phenylsulfinylmethyl-2,3-dioxabicyclo[3.3.1]nonanes], the IC50 came out at 0.04 µM in data set [2] (Expansion data (ten concentrations, quadruplicate, ~1.8-fold dilutions)) and 0.014 µM in data set [2] (Expansion data (ten concentrations, quadruplicate, ~1.8-fold dilutions), listed as 41a').
Regarding `CC(=O)CC(=O)O[C@]1(C)CC[C@@H]2C[C@H]1OO[C@]2(C)CS(=O)(=O)c1ccccc1` [Compound 24b, (1R,4S,5R,8R)-8-acetylacetoxy-4,8-dimethyl-4-phenylsulfonylmethyl-2,3-dioxabicyclo [3.3.1]nonane], the 50% inhibitory concentration (IC50) in data set [2] (setting [9]) was found to be 0.073 µM.
Compound `C[C@@]12O[C@@H]1C[C@@H]1C[C@H]2OO[C@@]1(C)CS(=O)(=O)c1ccccc1` [Compound 39a, (1R,4R,5R,7R,8R)-7,8-epoxy-4,8-dimethyl-4-phenylsulfonylmethyl-2,3-dioxabicyclo[3.3.1]nonane] registered a half-inhibitory concentration (IC50) in data set [2] (setting [9]) of 0.092 µM.
In turn, `C[C@@]1(OC/C=C/c2ccccc2)CC[C@@H]2C[C@H]1OO[C@@]2(C)CS(=O)(=O)c1ccccc1` [Compound 36a, (1R,4R,5R,8R)-8-(trans-cinnamyloxy)-4,8-dimethyl-4-phenylsulfonylmethyl-2,3-dioxabicyclo[3.3.1]nonane] had a half-maximal inhibitory concentration (IC50) in data set [2] (setting [9]) of 0.032 µM.
The same measure, in the same setting: the same measure for `C[C@H]1CC[C@@H]2C[C@H]1OO[C@]2(C)CS(=O)(=O)c1ccccc1` [Compound 22b, (1R,4S,5R,8S)-4,8-dimethyl-4-phenylsulfonylmethyl-2,3-dioxabicyclo[3.3.1]nonane]: 0.024 µM.
As for `C[C@@]1(O)[C@@H]2C[C@H](C[C@@H]1OC(=O)c1ccccc1)[C@@](C)(CS(=O)(=O)c1ccccc1)OO2` [Compound 29a, (1S,4S,5S,7S,8S)-7-benzoyloxy-4,8-dimethyl-4-phenylsulfonylmethyl-2,3-dioxabicyclo[3.3.1]nonan-8-ol], the IC50 in data set [2] (setting [10]) amounted to 0.25 µM.
In data set [2] (setting [10]), `CC1=CC[C@@H]2C[C@H]1OO[C@@]2(C)CS(=O)(=O)c1ccccc1` [Compound 37a, (1R,4R,5R)-4,8-dimethyl-4-phenylsulfonylmethyl-2,3-dioxabicyclo[3.3.1]non-7-ene] yielded a 50% inhibitory concentration (IC50) of 0.49 µM.
As for `C[C@@]1(O)CC[C@@H]2C[C@H]1OO[C@@]2(C)CS(=O)(=O)c1ccccc1` [Compound 21a, (1R,4R,5R,8R)-4,8-dimethyl-4-phenylsulfonylmethyl-2,3-dioxabicyclo [3.3.1]nonan-8-ol], in data set [2] (setting [9]), half-maximal inhibition (IC50) required 0.055 µM.
The compound `CC(=O)O[C@]1(C)CC[C@@H]2C[C@H]1OO[C@]2(C)C[S+]([O-])c1ccccc1` (stereo partly drawn) [Compound 41b, (1R,4S,5R,8R)-8-acetoxy-4,8-dimethyl-4-phenylsulfinylmethyl-2,3-dioxabicyclo[3.3.1]nonanes] registered an IC50 in data set [2] (setting [9]) of 0.071 µM.
Consider `CC(=O)CC(=O)O[C@]1(C)CC[C@@H]2C[C@H]1OO[C@@]2(C)CS(=O)(=O)c1ccccc1` [Compound 24a, (1R,4R,5R,8R)-8-acetylacetoxy-4,8-dimethyl-4-phenylsulfonylmethyl-2,3-dioxabicyclo[3.3.1]nonane], for which, in data set [2] (setting [9]), it took 0.046 µM to reach half-maximal inhibition (IC50).
For `COc1ccc(CO[C@]2(C)CC[C@@H]3C[C@H]2OO[C@@]3(C)CS(=O)(=O)c2ccccc2)cc1` [Compound 34a, (1R,4R,5R,8R)-4,8-dimethyl-8-(p-methoxybenzyloxy)-4-phenylsulfonylmethyl-2,3-dioxabicyclo[3.3.1]nonane], the ED50 in data set [1] is 1.3 mg/kg; in data set [3], 4.8 mg/kg. Moreover, the figures for the ED90 in data set [1] and in data set [3] were 2.3 mg/kg/day and 8.3 mg/kg/day, respectively. Also, in data set [2] (setting [9]), the concentration for half-maximal inhibition (IC50) amounted to 0.014 µM.
On to `CO[C@H]1O[C@@H]2O[C@@]3(C)CC[C@H]4[C@H](C)CC[C@@H]([C@H]1C)[C@@]24OO3` [artemether], for which, in data set [5], the neurotoxicity result is listed as “neurotoxicity has been seen”.
Compound `C[C@]1(CS(=O)(=O)c2ccccc2)OO[C@@H]2C[C@H]1CC[C@@]2(C)OC(=O)C(=O)N(Cc1ccccc1)Cc1ccccc1` [Compound 26b, (1R,4S,5R,8R)-dibenzylaminooxalyloxy-4,8-dimethyl-4-phenylsulfonylmethyl-2,3-dioxabicyclo[3.3.1]nonane] yielded an IC50 in data set [2] (setting [9]) of 0.081 µM.
On the same count and under the same terms, the same measure for `C[C@@]1(OC(=O)C(=O)N(Cc2ccccc2)Cc2ccccc2)CC[C@@H]2C[C@H]1OO[C@@]2(C)CS(=O)(=O)c1ccccc1` [Compound 26a, (1R,4R,5R,8R)-8-dibenzylaminooxalyloxy-4,8-dimethyl-4-phenylsulfonylmethyl-2,3-dioxabicyclo[3.3.1]nonane]: 0.021 µM.
In the case of `C[C@@H]1CC[C@H]2[C@@H](C)C(=O)O[C@@H]3O[C@@]4(C)CC[C@@H]1[C@]32OO4` [artemisinin], in data set [6], the ED50 is 5.8 and the ED90 is 10.0. For the same compound, in data set [7], the ED50 was 0.95 and the ED90 is 2.5. In addition, in data set [8], the IC50 is 0.011 µM.
